Measured values published in patent US20220227813A1, “Ras INHIBITORY PEPTIDE” (ICHIMARU PHARCOS CO., LTD., priority 2019, published 2022).
Values belong to the molecule of their own block, whether it stands above or below them. Starred links: 1 amine or outer side, 2 acyl side, 3 side chain; linkers in the order of their positions; H or OH if unused. Positions of bridges follow the written chain, without caps; N, C: chain ends. Non-standard residues stand in square brackets, D forms with d. Residues, ends and D or L forms follow the SMILES beside them. Phe(4-F) = N[C@@H](Cc1ccc(F)cc1)C(=O)O; X1 = CCCCCCC[C@H](N[*:1])C(=O)[*:2]; Aoc(2) = CCCCCC[C@H](N)C(=O)O; NMeV = CN[C@H](C(=O)O)C(C)C; Nle = CCCC[C@H](N)C(=O)O; X2 = C(C[*:1])C[*:2]; βAla = NCCC(=O)O

What was measured:
[1] = tested on: negative control protein
[2] = tested on: PANC-1 cells expressing K-Ras(G12D); test: anticancer activity in orthotopic transplant model mice; type: in vivo; details: 40 mg/kg tail vein once every two days
Procedure: PANC-1 cells expressing K-Ras(G12D) (Catalog No. CRL-1469, ATCC) were transplanted at 2.5×10^6 cells under the tail capsule of the pancreas of BALB/cAJc1-nu/nu mice (male, 8 weeks old) (Nihon Clare Co., Ltd.), and were used for the test one week later. The peptide (Seq-17) synthesized in this study was dissolved in DMSO, diluted 10-fold with saline, and administered at 40 mg/kg through the tail vein once every two days, and the body weight of the mice was measured over time (Sham group, peptide administration group, and vehicle group: N=7 for each). The Sham group was the group that received saline (10% DMSO) without cancer cell transplantation, and the Vehicle group was the group that received saline (10% DMSO) with cancer cell transplantation. The weight of the mice and the weight of their organs (pancreas, liver, and kidney) were measured four weeks after the start of administration.

[3] = tested on: PANC-1 cells expressing K-Ras (G12D); test: cell proliferation test, PANC-1 cells; type: cell-based; details: final concentration 30 μM, ATP quantification (CellTiter-Glo), N=4
Procedure: The following is a brief description of the cell proliferation test, which may be performed according to the Non-Patent Literature 3. A427 cells expressing K-Ras(G12D) (Catalog No. HTB-53, ATCC) or PANC-1 cells expressing K-Ras (G12D) (Catalog No. CRL-1469, ATCC) were spread into 96-well plates at 1×10^3 cells/well and cultured overnight at 37° C. in a CO2 incubator. Peptides diluted in serum medium (final concentration 30 μM) were added to the wells, and after culturing for 24 hours, all the medium was removed, and then freshly diluted peptides in serum medium (final concentration 30 μM) were added to the wells and incubated for 24 hours. The number of cells in the wells was quantified by CellTiter-Glo (Catalog No. G7570, Promega) after the removal of medium and addition of peptide for a total of three times.

[4] = resistance to protease degradation in rat plasma (RP-HPLC); type: in vitro ADME; details: 37° C., 24 hours compared to 0 hours
Procedure: For 1 μL of each 10 mM peptide, 20 μL of rat plasma was added and incubated at 37° C. for an arbitrary time (0 or 24 hours). […] To remove plasma proteins, the mixture was centrifuged at a speed of 15,000 rpm under 4° C. for 10 min. The supernatant was collected and the remaining amount of peptide was detected by RP-HPLC (solution A: 0.1% TFA/water, solution B: 0.1% TFA/acetonitrile, 20 min gradient of 80% solution A→10% solution A at 1 mL/min) using a SunFire C18 column (5 μm, 4.6×^150 mm).

[5] = tested on: PANC-1 cells expressing K-Ras(G12D); test: anticancer activity in subcutaneous carcinoma-bearing mice; type: in vivo; details: 40 mg/kg tail vein once every two days
Procedure: PANC-1 cells expressing K-Ras(G12D) (Catalog No. CRL-1469, ATCC) were transplanted at 1×10^7 cells under the left inguinal skin of Crl:SHO-Prkdc^scidHr^hr mice (female, 7 weeks old) (Charles River, Japan). When the tumor volume reached approximately 50 mm^3, the mice were submitted to the study. Tumor volume was determined by measuring the long diameter (mm) and the short diameter (mm) orthogonal to the long diameter from the skin surface with calipers and using the formula: (long diameter)×(short diameter)^2×0.5, with the unit being mm^3. A representative example of the peptide in one of embodiments (Seq-17) was dissolved in DMSO, diluted 10 times with saline, and administered at 40 mg/kg through the tail vein once every two days, and the body weight and tumor volume of mice were measured over time (peptide administration group: N=10, vehicle group: N=4). The vehicle group was the group in which cancer cells were implanted and saline (10% DMSO) was administered.

[6] = molecular target: K-Ras(G12D) (Homo sapiens, UniProt P01116, G12D); test: peptide concentration-dependent binding of biotin-modified peptide (ELISA)
[7] = molecular target: K-Ras(G12C) (Homo sapiens, UniProt P01116, G12C); test: as above
From the text: (§1) The ELISA method is briefly described below.

[8] = molecular target: wild-type N-Ras (Homo sapiens, UniProt P01111); test: as above
From the text: as §1

[9] = molecular target: wild-type K-Ras (Homo sapiens, UniProt P01116); test: as above
From the text: as §1

[10] = molecular target: H-Ras (G12V) (Homo sapiens, UniProt P01112, G12V); test: as above
From the text: as §1

[11] = molecular target: K-Ras(G13D) (Homo sapiens, UniProt P01116, G13D); test: as above
From the text: as §1

[12] = molecular target: H-Ras (Q61L) (Homo sapiens, UniProt P01112, Q61L); test: as above
From the text: as §1

[13] = molecular target: K-Ras(G12V) (Homo sapiens, UniProt P01116, G12V); test: as above
From the text: as §1

[14] = molecular target: wild-type H-Ras (Homo sapiens, UniProt P01112); test: as above
From the text: as §1

[15] = molecular target: N-Ras (Q61K) (Homo sapiens, UniProt P01111, Q61K); test: as above
From the text: as §1

[16] = molecular target: T1, K-Ras(G12D) (UniProt P01116-2 1-188, limits assumed); test: competitive ELISA, K-Ras(G12D) coated, competitor Biotin-KRpep-2d 100 nM; IC50 relative to KRpep-2d = 1; N=4
T1 construct: Bought recombinant protein coated on ELISA plates in buffer with 10 mM MgCl2 and 10 uM GDP; also called recombinant protein of Ras

[17] = bond between positions 4 and 11 cleaved, monocyclic

Molecule: Biotin-Arg-Arg-Arg-Arg-c(Cys-Pro-Leu-Tyr-Ile-Ser-Tyr-Asp-Pro-Val-Cys)-Arg-Arg-Arg-Arg-NH2 [Biotin-KRpep-2d, reference compound]
binding activity to negative control protein [1]: did not show binding activity

weight of kidney ([2]; four weeks): no significant difference | weight of liver ([2]; four weeks): no significant difference | peptide-derived RP-HPLC peak remaining after incubation in rat plasma [4]: remained almost the same
Molecule: CCCCCCC[C@@H]1NC(=O)[C@@H]2CSCCCSC[C@@H](NC(=O)[C@H](Cc3c[nH]c4ccccc34)NC(=O)[C@@H]3CCCN3C(=O)[C@H](CC(=O)O)NC(=O)[C@H](Cc3ccc(F)cc3)NC(=O)[C@H](CO)NC1=O)C(=O)NCCC(=O)N1CCC[C@H]1C(=O)N[C@@H](CCCC)C(=O)N2 [Seq-17, c[βAla-Pro-Nle-c(Cys-Anon-Ser-4fF-Asp-Pro-Trp-^DCys)]] (cyclo([βAla]P[Nle]C[X1]S[Phe(4-F)]DPW[dC]); linker 4-11 via X2)
body weight of the mice [2]: no decrease | increase in the weight of pancreas ([2]; four weeks, p-value (Student's t-test) less than 0.05): significantly suppressed | growth inhibitory activity against PANC-1 cells [3]: inhibited the proliferation | body weight of the mice [5]: no decrease | increase in tumor volume ([5]; p-value (Student's t-test) less than 0.005): significantly suppressed

Molecule: c[βAla-Pro-Nle-c(^DCys-Aoc-Ser-^m4fF-Asp-Lys(εNH-Biotin)-^mVal-^DCys)] [Biotin-BC-1]
peptide concentration-dependent binding ([6]; K-Ras(G12D) coated plate, SA-HRP detection): concentration-dependent binding | binding activity under the reducing condition ([6]; K-Ras(G12D), bond between positions 4 and 11 cleaved, monocyclic): greatly weakened | binding activity to negative control protein [1]: no binding activity | peptide concentration-dependent binding [7]: concentration-dependent binding | binding activity under the reducing condition [7, 17]: greatly weakened | peptide concentration-dependent binding [8]: concentration-dependent binding | binding activity under the reducing condition [8, 17]: greatly weakened | peptide concentration-dependent binding [9]: concentration-dependent binding | binding activity under the reducing condition [9, 17]: greatly weakened | peptide concentration-dependent binding [10]: concentration-dependent binding | binding activity under the reducing condition [10, 17]: greatly weakened | peptide concentration-dependent binding [11]: concentration-dependent binding | binding activity under the reducing condition [11, 17]: greatly weakened | peptide concentration-dependent binding [12]: concentration-dependent binding | binding activity under the reducing condition [12, 17]: greatly weakened | peptide concentration-dependent binding [13]: concentration-dependent binding | binding activity under the reducing condition [13, 17]: greatly weakened | peptide concentration-dependent binding [14]: concentration-dependent binding | binding activity under the reducing condition [14, 17]: greatly weakened | peptide concentration-dependent binding [15]: concentration-dependent binding | binding activity under the reducing condition [15, 17]: greatly weakened

Molecule: c[βAla-Pro-Nle-c(Cys-Aoc-Ser-4fF-Asp-Pro-^mVal-^DCys)] (cyclo([βAla]P[Nle]C[Aoc(2)]S[Phe(4-F)]DP[NMeV][dC]); linker 4-11 via 1,2‑diiodoethane) [Seq-20]
peptide-derived RP-HPLC peak remaining after incubation in rat plasma [4]: remained almost the same

Binding intensity (fold vs KRpep-2d) [16]: 2.6 fold
B1: 2d-8-Trp (peptide)
peptide: RRRRCPLWISYDPVCRRRR
HELM: PEPTIDE1{[ac].R.R.R.R.C.P.L.W.I.S.Y.D.P.V.C.R.R.R.R.[am]}$PEPTIDE1,PEPTIDE1,6:R3-16:R3$$$V2.0
SMILES: CC[C@H](C)[C@@H]1NC(=O)[C@H](Cc2c[nH]c3ccccc23)NC(=O)[C@H](CC(C)C)NC(=O)[C@@H]2CCCN2C(=O)[C@@H](NC(=O)[C@H](CCCNC(=N)N)NC(=O)[C@H](CCCNC(=N)N)NC(=O)[C@H](CCCNC(=N)N)NC(=O)[C@H](CCCNC(=N)N)NC(C)=O)CSSC[C@@H](C(=O)N[C@@H](CCCNC(=N)N)C(=O)N[C@@H](CCCNC(=N)N)C(=O)N[C@@H](CCCNC(=N)N)C(=O)N[C@@H](CCCNC(=N)N)C(N)=O)NC(=O)[C@H](C(C)C)NC(=O)[C@@H]2CCCN2C(=O)[C@H](CC(=O)O)NC(=O)[C@H](Cc2ccc(O)cc2)NC(=O)[C@H](CO)NC1=O

Binding intensity (fold vs KRpep-2d) [16]: 0.9 fold
B2: 2d-10-Thr (peptide)
peptide: RRRRCPLYITYDPVCRRRR
HELM: PEPTIDE1{[ac].R.R.R.R.C.P.L.Y.I.T.Y.D.P.V.C.R.R.R.R.[am]}$PEPTIDE1,PEPTIDE1,6:R3-16:R3$$$V2.0
SMILES: CC[C@H](C)[C@@H]1NC(=O)[C@H](Cc2ccc(O)cc2)NC(=O)[C@H](CC(C)C)NC(=O)[C@@H]2CCCN2C(=O)[C@@H](NC(=O)[C@H](CCCNC(=N)N)NC(=O)[C@H](CCCNC(=N)N)NC(=O)[C@H](CCCNC(=N)N)NC(=O)[C@H](CCCNC(=N)N)NC(C)=O)CSSC[C@@H](C(=O)N[C@@H](CCCNC(=N)N)C(=O)N[C@@H](CCCNC(=N)N)C(=O)N[C@@H](CCCNC(=N)N)C(=O)N[C@@H](CCCNC(=N)N)C(N)=O)NC(=O)[C@H](C(C)C)NC(=O)[C@@H]2CCCN2C(=O)[C@H](CC(=O)O)NC(=O)[C@H](Cc2ccc(O)cc2)NC(=O)[C@H]([C@@H](C)O)NC1=O

Binding intensity (fold vs KRpep-2d) [16]: 3.4 fold
B3: 2d-14-Trp (peptide)
peptide: RRRRCPLYISYDPWCRRRR
HELM: PEPTIDE1{[ac].R.R.R.R.C.P.L.Y.I.S.Y.D.P.W.C.R.R.R.R.[am]}$PEPTIDE1,PEPTIDE1,6:R3-16:R3$$$V2.0
SMILES: CC[C@H](C)[C@@H]1NC(=O)[C@H](Cc2ccc(O)cc2)NC(=O)[C@H](CC(C)C)NC(=O)[C@@H]2CCCN2C(=O)[C@@H](NC(=O)[C@H](CCCNC(=N)N)NC(=O)[C@H](CCCNC(=N)N)NC(=O)[C@H](CCCNC(=N)N)NC(=O)[C@H](CCCNC(=N)N)NC(C)=O)CSSC[C@@H](C(=O)N[C@@H](CCCNC(=N)N)C(=O)N[C@@H](CCCNC(=N)N)C(=O)N[C@@H](CCCNC(=N)N)C(=O)N[C@@H](CCCNC(=N)N)C(N)=O)NC(=O)[C@H](Cc2c[nH]c3ccccc23)NC(=O)[C@@H]2CCCN2C(=O)[C@H](CC(=O)O)NC(=O)[C@H](Cc2ccc(O)cc2)NC(=O)[C@H](CO)NC1=O
